Test results taken from article PMC9181887, “In Vitro Antithrombotic, Hematological Toxicity, and Inhibitor Studies of Protocatechuic, Isovanillic, and p-Hydroxybenzoic Acids from Maclura tricuspidata (Carr.) Bur” (Molecules, 2022).
“And” between values parts separate entries of the source, which are not always exact repeats. Equal entries are not always repeated.

Columns and labels:
[1] = test system: fibrin clot formation (fibrinogen, thrombin, CaCl2); experiment: Fibrin clot assay; assay type: biochemical, Human; details: 100 μg
Experimental: The fibrin clot assay, as previously described, was performed to evaluate the improvement in blood circulation by the attenuation of fibrin formation. First, 1.5% fibrinogen, 0.5 U/mL of thrombin, and 5 mM CaCl2 in 20 mM Tris-HCl in a volume of 100 μL were added to different concentrations of compounds or 10–20 IU u-PA as PC 1–2. These prepared fibrin clot mixtures were incubated at 37 °C for 30 min. Each tube of the fibrin clot mixture was photographed, and the density of the clots was measured using the ImageJ 1.46 b image analysis software (National Institutes of Health, Bethesda, MD, USA). Inhibitory activity was calculated as follows:Inhibitory activity (%) = [1 − (density control without sample−density sample)/density control without sample] × 100

[2] = test system: mouse blood clots; experiment: In vitro antithrombotic activity assay using blood clot; details: vs NC group treated with saline, p < 0.01, 1 h
Experimental: To determine the in vitro antithrombotic activity, a blood clot assay was performed based on a previously described method. All experimental procedures were performed in accordance with the related ethical regulations of Gwangju University, and were approved by the Institutional Animal Care and Use Committee of Jeonnam Institute of Natural Resources Research, Jangheung, South Korea (2021-JINR2001). Fresh mouse blood clots (40 μg) treated with the compounds, 10–20 IU u-PA as PC 1–2, or saline as NC were incubated for 1 h. After incubation, blood clot degradation in each group was analyzed using absorbance values at a wavelength of 410 nm. The maximum absorbance wavelength was determined by measuring the absorption spectra in the wavelength range of 340–850 nm.

[3] = target: T1, human thrombin (Homo sapiens, UniProt P00734); experiment: Thrombin activity and kinetic/inhibitor assay; assay type: biochemical; details: for inhibition type against thrombin: from Kik/Kiv ratio and Lineweaver–Burk plots; for activity of thrombin: highest concentration of each compound, p < 0.01; for IC50 / Ki / Kik/Kiv / Kcat / Vmax: thrombin; for Vmax value of thrombin decreased by, fold of non-treated: vs non-treated 0.381 ± 0.011 mU/min; for Vmax value of thrombin decreased by, fold of non-treated / Km value of thrombin reduced by, fold of non-treated / Kcat values of thrombin reduced by, fold of non-treated: compound 0.065–1.3 mM; for Km value of thrombin reduced by, fold of non-treated: vs non-treated 0.566 ± 0.025 mM; for Kcat values of thrombin reduced by, fold of non-treated: vs non-treated 109.87 ± 3.16 s^−1
T1 construct: purchased Sigma-Aldrich
Experimental: To determine the thrombin activity, various concentrations of compounds were treated with 1 U human thrombin in 100 μL of 20 mM Tris-HCl, as previously described. The reaction solutions were incubated for 15 min at 37 °C. After the incubation, 1 mM chromogenic substrate for thrombin (S-2238, HD-Phe-Pip-Arg-p-nitroanilide) was added and incubated for 1 h at 37 °C. Absorbance was measured at 405 nm to determine the enzymatic activity. To determine FXa activity, various concentrations of the compounds were mixed with 1 U human FXa in 20 mM Tris-HCl (pH 7.4) in volume of 100 μL, followed by incubation for 15 min at 37 °C. After adding 1 mM N-benzoyl-Ile-Glu-Gly-Arg-p-nitroanilide, a highly specific chromogenic peptide substrate for FXa, the reaction solutions were incubated for 1 h at 37 °C. The residual activity of FXa was measured at 405 nm and is presented as a percentage of inhibition. To investigate FXIIIa activity, various concentrations of the compounds were mixed with 1 U human FXIIIa in 20 mM Tris-HCl (pH 7.4) in a volume of 100 μL, followed by, incubation for 15 min at 37 °C as previously described. The residual activity of FXIIIa was measured using casein and fibrinogen-HRP, according to the manufacturer’s instructions, and was presented as a percentage of inhibition. The negative control was generated by treatment with only thrombin, FXa, or FXIIIa without treatment with any compound.
Kinetic assays were performed using PA, IVA, and 4-HA for procoagulant proteases (thrombin and FXa) and fibrinoligase (FXIIIa). The kinetic constants were calculated using Lineweaver–Burk plots based on the initial reaction rates with different concentrations (0.1, 0.5, 1, and 2 mM) of each substrate for thrombin, FXa, and FXIIIa treated with or without the compounds (0.065, 0.13, 0.33, 0.65, and 1.30 mM [1–20 μg]) in a total volume of 100 μL. The Michaelis–Menten constant (Km) and maximal velocity (Vmax) were calculated from the x and y intercepts, respectively. […] The median inhibitory concentration (IC50) was defined as the concentration required to reach a 50% reduction in the activity of the three target factors. The Kik and Kiv inhibition constants were calculated using a previously described method. The inhibition type of the compounds against the three target factors was evaluated according to a previously described inhibition type definition.

[4] = test system: fibrin clot network (Alexa Fluor 488 fibrinogen, thrombin); experiment: Fibrin clot assay using a fluorescence microscope; assay type: biochemical, human; details: fluorescent fibrinogen and thrombin, 30 min
Experimental: Fibrin clots were prepared by mixing 2.6 μM human fibrinogen and 0.4 μM Alexa Fluor 488 fibrinogen with 0.25 U/mL of thrombin in 20 mM Tris-HCl (pH 7.4) in a glass-bottom dish and treated with compounds or 20 IU u-PA as previously described. The mixtures were incubated for 30 min at 37 °C in the dark. Fibrin clots were observed under a fluorescence microscope (Nikon, Eclipse TE 2000-U, Kyoto, Japan) and photographed. Fibrin clots pre-treated with saline (control group) or […] (positive control group). Quantitative analysis of the fluorescent fibrin clots was performed using the ImageJ 1.46 b image analysis software.

[5] = test system: platelet aggregation/activation in whole blood; experiment: PFA-100 platelet function assay, collagen/epinephrine cartridge; assay type: cell-based; details: for Closure time: control 118.6 ± 2.1 s
Experimental: The effects of the compounds on platelet aggregation/activation and adherence in whole blood under conditions of high shear stress flow were evaluated using a collagen/epinephrine cartridge (Dade Behring, Marburg, Germany) and platelet function analyzer (PFA-100), as previously described. Blood samples were drawn from healthy donors using 3.8% (w/v) sodium citrate. Aliquots of whole blood were treated with different concentrations of compounds and incubated for 5 min at room temperature. Blood samples were added to a collagen/epinephrine cartridge, and the time required for occlusion of the aperture was measured using the analyzer and reported as the closure time. Saline-treated blood was used as a control.

SMILES	inhibition of fibrin clot formation [1] [%]	blood clot degradation [2]	inhibition type against thrombin [3]	activity of thrombin [3]	IC50 [3] [µM]	Ki [3] [µM]	Kik/Kiv [3]	Kcat ([3]; compound 0.065 mM (1 μg)) [s⁻¹]	Vmax ([3]; compound 0.065 mM (1 μg)) [mU/min]	Kcat ([3]; compound 0.13 mM (2 μg)) [s⁻¹]	Vmax ([3]; compound 0.13 mM (2 μg)) [mU/min]	Kcat ([3]; compound 0.325 mM (5 μg)) [s⁻¹]	Vmax ([3]; compound 0.325 mM (5 μg)) [mU/min]	Kcat ([3]; compound 0.65 mM (10 μg)) [s⁻¹]	Vmax ([3]; compound 0.65 mM (10 μg)) [mU/min]	Kcat ([3]; compound 1.3 mM (20 μg)) [s⁻¹]	Vmax ([3]; compound 1.3 mM (20 μg)) [mU/min]	Vmax value of thrombin decreased by, fold of non-treated [3]	Kcat values of thrombin reduced by, fold of non-treated [3]	fibrin network structure / clot density [4]	other results
O=C(O)c1ccc(O)cc1 [4-HA, 4-hydroxybenzoic acid]	67.1 ± 1.3	significantly degraded	uncompetitive inhibition type	significantly decreased	1700	1700	1.2	100.59 ± 1.41	0.349 ± 0.013	98.38 ± 1.24	0.341 ± 0.015	91.57 ± 0.98	0.317 ± 0.016	89.25 ± 0.77	0.309 ± 0.020	78.83 ± 1.01	0.273 ± 0.013	0.72–0.92 fold	0.72–0.92 fold	morphological changes in the network and reduced fibrin clot density	Km value of thrombin reduced by, fold of non-treated [3]: 0.71–0.86 fold; Closure time ([5]; 10 μg): 121.2 ± 1.9 s; Closure time ([5]; 20 μg): 127.7 ± 3.1 s; Closure time, fold of control ([5]; 50 μg): 1.13 fold; Closure time ([5]; 50 μg): 134.6 s and 134.6 ± 4.5 s; Closure time, fold of control ([5]; 100 μg): 1.24 fold; Closure time ([5]; 100 μg): 147.3 s and 147.3 ± 5.8 s
COc1ccc(C(=O)O)cc1O [IVA, isovanillic acid]	55.6 ± 1.7	significantly degraded	uncompetitive inhibition type	significantly decreased	925	923	1.1	87.72 ± 1.32	0.304 ± 0.013	94.13 ± 2.08	0.326 ± 0.018	67.14 ± 0.93	0.233 ± 0.010	54.42 ± 0.81	0.189 ± 0.007	48.31 ± 1.05	0.167 ± 0.008	0.44–0.86 fold	0.43–0.86 fold	morphological changes in the network and reduced fibrin clot density	Km value of thrombin reduced by, fold of non-treated [3]: 0.52–0.93 fold; Closure time ([5]; 10 μg): 118.5 ± 1.8 s; Closure time ([5]; 20 μg): 119.7 ± 2.8 s; Closure time ([5]; 50 μg): 123.5 ± 2.2 s; Closure time, fold of control ([5]; 100 μg): 1.09 fold; Closure time ([5]; 100 μg): 129.4 ± 3.4 s
O=C(O)c1ccc(O)c(O)c1 [PA, protocatechuic acid]	66.9 ± 3.3	significantly degraded	mixed inhibition type	significantly decreased	1110	1110	125.4	101.67 ± 1.44	0.352 ± 0.019	93.29 ± 1.60	0.323 ± 0.021	85.00 ± 2.13	0.295 ± 0.015	71.98 ± 1.95	0.249 ± 0.009	69.08 ± 1.15	0.239 ± 0.008	0.65–0.92 fold	0.63–0.93 fold	morphological changes in the network and reduced fibrin clot density	Closure time ([5]; 10 μg): 119.9 ± 2.4 s; Closure time ([5]; 20 μg): 122.1 ± 1.4 s; Closure time ([5]; 50 μg): 126.3 ± 2.9 s; Closure time, fold of control ([5]; 100 μg): 1.13 fold; Closure time ([5]; 100 μg): 133.7 ± 5.2 s
